According to article PMC8607748 (Inorganic chemistry, 2020):

Test system: HL-60 cell line
Assay type: cell-based
Settings: free ligand

SMILES	activity of the ejected monodentate ligand (cell killing)
c1ccncc1 [pyridine]	inactive
c1cnccn1 [pyrazine]	inactive
